Source: the supplement of paper PMC10307832

What was measured:
Assay in all cases: relative viability (nuclei count vs DMSO), 5 days (fraction); higher = more cells survive
XMD13-2 + Linsitinib = compound: C1CC1C(=O)NC2=NNC3=C2C=CC(=C3)C4=CC(=CC=C4)C(=O)NC5CC5 [XMD13-2] + C[C@]1(O)C[C@@H](c2nc(-c3ccc4ccc(-c5ccccc5)nc4c3)c3c(N)nccn32)C1 [Linsitinib] (partner 1 µM)
Procedure, shortened: (§1)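 Cells from lung cancer lines were seeded into 1536-well plates and, one day later, dosed by pin tool. Treatments were either a single drug or a fixed dose of an anchor drug with five library-drug doses (not always all listed) in √10 steps. After 5 days, nuclei were stained in a one-step fixation (final 0.05% Triton X-100, 1% formaldehyde, 1 ug/ml Hoechst) and counted on 4× images, and relative viability is the treated-to-vehicle nuclei ratio, as the median of duplicate plates.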

XMD13-2 + AZD7762 = compound: C1CC1C(=O)NC2=NNC3=C2C=CC(=C3)C4=CC(=CC=C4)C(=O)NC5CC5 [XMD13-2] + NC(=O)Nc1cc(-c2cccc(F)c2)sc1C(=O)N[C@H]1CCCNC1 [AZD7762] (partner 0.2 µM)
Procedure, shortened: as §1

ALW-II-49-7 + Trametinib = compound: Cc1ccc(C(=O)Nc2cccc(C(F)(F)F)c2)cc1Nc1cncc(C(N)=O)c1 [ALW-II-49-7] + CC(=O)Nc1cccc(-n2c(=O)n(C3CC3)c(=O)c3c(Nc4ccc(I)cc4F)n(C)c(=O)c(C)c32)c1 [Trametinib] (partner 0.02 µM)
Procedure, shortened: as §1

Dasatinib + Navitoclax = compound: Cc1nc(Nc2ncc(C(=O)Nc3c(C)cccc3Cl)s2)cc(N2CCN(CCO)CC2)n1 [Dasatinib] + CC1(C)CCC(c2ccc(Cl)cc2)=C(CN2CCN(c3ccc(C(=O)NS(=O)(=O)c4ccc(N[C@H](CCN5CCOCC5)CSc5ccccc5)c(S(=O)(=O)C(F)(F)F)c4)cc3)CC2)C1 [Navitoclax] (partner 0.5 µM)
Procedure, shortened: as §1

Cell Line | relative viability (XMD13-2 + Linsitinib; first compound 0.05 µM) | relative viability (XMD13-2 + Linsitinib; first compound 0.1581 µM) | relative viability (XMD13-2 + Linsitinib; first compound 0.5 µM) | relative viability (XMD13-2 + Linsitinib; first compound 1.581 µM) | relative viability (XMD13-2 + Linsitinib; first compound 5 µM) | relative viability (XMD13-2 + AZD7762; first compound 0.05 µM) | relative viability (XMD13-2 + AZD7762; first compound 0.1581 µM) | relative viability (XMD13-2 + AZD7762; first compound 0.5 µM) | relative viability (XMD13-2 + AZD7762; first compound 1.581 µM) | relative viability (XMD13-2 + AZD7762; first compound 5 µM) | relative viability (ALW-II-49-7 + Trametinib; first compound 0.08 µM) | relative viability (ALW-II-49-7 + Trametinib; first compound 0.253 µM) | relative viability (ALW-II-49-7 + Trametinib; first compound 0.8 µM) | relative viability (ALW-II-49-7 + Trametinib; first compound 2.53 µM) | relative viability (ALW-II-49-7 + Trametinib; first compound 8 µM) | relative viability (Dasatinib + Navitoclax; first compound 0.005 µM) | relative viability (Dasatinib + Navitoclax; first compound 0.01581 µM) | relative viability (Dasatinib + Navitoclax; first compound 0.05 µM) | relative viability (Dasatinib + Navitoclax; first compound 0.1581 µM) | relative viability (Dasatinib + Navitoclax; first compound 0.5 µM)
LC-2-ad | 0.927 | 0.924 | 0.826 | 0.769 | 0.831 | 0.996 | 0.94 | 0.896 | 0.928 | 0.826 | 0.94 | 0.917 | 0.881 | 0.858 | 0.945 | 0.553 | 0.418 | 0.341 | 0.13 | 0.1
NCI-H1395 | 1.06 | 0.984 | 1 | 1.11 | 1.28 | 0.408 | 0.404 | 0.423 | 0.38 | 0.419 | 0.906 | 1.1 | 1.3 |  | 0.938 | 1.01 | 0.971 | 0.91 | 0.609 | 0.476
NCI-H1944 | 1.24 | 1.18 | 1.26 | 1.29 | 1.34 | 0.555 | 0.473 | 0.488 | 0.75 | 0.551 | 0.405 | 0.427 | 0.418 | 0.339 | 0.405 | 1.03 | 1.07 | 0.976 | 0.695 | 0.504
HOP-62 | 1.03 | 0.971 | 1 | 1.09 | 0.913 | 0.917 | 0.799 | 0.867 | 0.598 | 0.409 | 0.389 | 0.364 | 0.402 | 0.452 | 0.465 | 1.02 | 1.01 | 0.829 | 1.09 | 0.372
NCI-H2347 | 0.973 | 0.951 | 0.973 | 0.924 | 0.972 | 0.971 | 0.759 | 0.888 | 0.735 | 0.822 | 0.326 | 0.299 | 0.252 | 0.297 | 0.28 | 0.875 | 0.692 | 0.467 | 0.285 | 0.228
NCI-H2087 | 0.922 | 0.991 | 0.869 | 0.811 | 0.784 | 1.31 | 1.39 | 1.62 | 1.3 | 1.49 | 0.214 | 0.211 | 0.228 | 0.189 | 0.188 | 0.997 | 0.873 | 1.07 | 0.972 | 0.532
EPLC-272H | 1.21 | 1.08 | 1.25 | 1.06 | 0.284 | 0.294 | 0.237 | 0.0561 | 0.156 | 0.231 | 0.245 | 0.27 | 0.281 | 0.305 | 0.239 | 1.32 | 1.06 | 1.39 | 0.959 | 0.473
LXF-289 | 0.941 | 0.942 | 0.967 | 0.984 | 0.986 | 1.14 | 1.25 | 1.2 | 1.29 | 1.17 | 0.604 | 0.715 | 0.681 | 0.67 | 0.626 | 1.01 | 0.969 | 0.923 | 0.408 | 0.171
